Reference: ChEMBL document CHEMBL3046466 (Med Chem Res, 2012)

Biological target: Voltage-dependent L-type calcium channel subunit alpha-1C (Cavia porcellus, UniProt O35505)
Assay: Inhibition of Calcium channel in Cavia porcellus albino (guinea pig) ileocecal SMC assessed as inhibition of 80 mM KCl-induced contraction
Conditions: for IC30: guinea pig

Sequence of Voltage-dependent L-type calcium channel subunit alpha-1C (O35505 whole entry): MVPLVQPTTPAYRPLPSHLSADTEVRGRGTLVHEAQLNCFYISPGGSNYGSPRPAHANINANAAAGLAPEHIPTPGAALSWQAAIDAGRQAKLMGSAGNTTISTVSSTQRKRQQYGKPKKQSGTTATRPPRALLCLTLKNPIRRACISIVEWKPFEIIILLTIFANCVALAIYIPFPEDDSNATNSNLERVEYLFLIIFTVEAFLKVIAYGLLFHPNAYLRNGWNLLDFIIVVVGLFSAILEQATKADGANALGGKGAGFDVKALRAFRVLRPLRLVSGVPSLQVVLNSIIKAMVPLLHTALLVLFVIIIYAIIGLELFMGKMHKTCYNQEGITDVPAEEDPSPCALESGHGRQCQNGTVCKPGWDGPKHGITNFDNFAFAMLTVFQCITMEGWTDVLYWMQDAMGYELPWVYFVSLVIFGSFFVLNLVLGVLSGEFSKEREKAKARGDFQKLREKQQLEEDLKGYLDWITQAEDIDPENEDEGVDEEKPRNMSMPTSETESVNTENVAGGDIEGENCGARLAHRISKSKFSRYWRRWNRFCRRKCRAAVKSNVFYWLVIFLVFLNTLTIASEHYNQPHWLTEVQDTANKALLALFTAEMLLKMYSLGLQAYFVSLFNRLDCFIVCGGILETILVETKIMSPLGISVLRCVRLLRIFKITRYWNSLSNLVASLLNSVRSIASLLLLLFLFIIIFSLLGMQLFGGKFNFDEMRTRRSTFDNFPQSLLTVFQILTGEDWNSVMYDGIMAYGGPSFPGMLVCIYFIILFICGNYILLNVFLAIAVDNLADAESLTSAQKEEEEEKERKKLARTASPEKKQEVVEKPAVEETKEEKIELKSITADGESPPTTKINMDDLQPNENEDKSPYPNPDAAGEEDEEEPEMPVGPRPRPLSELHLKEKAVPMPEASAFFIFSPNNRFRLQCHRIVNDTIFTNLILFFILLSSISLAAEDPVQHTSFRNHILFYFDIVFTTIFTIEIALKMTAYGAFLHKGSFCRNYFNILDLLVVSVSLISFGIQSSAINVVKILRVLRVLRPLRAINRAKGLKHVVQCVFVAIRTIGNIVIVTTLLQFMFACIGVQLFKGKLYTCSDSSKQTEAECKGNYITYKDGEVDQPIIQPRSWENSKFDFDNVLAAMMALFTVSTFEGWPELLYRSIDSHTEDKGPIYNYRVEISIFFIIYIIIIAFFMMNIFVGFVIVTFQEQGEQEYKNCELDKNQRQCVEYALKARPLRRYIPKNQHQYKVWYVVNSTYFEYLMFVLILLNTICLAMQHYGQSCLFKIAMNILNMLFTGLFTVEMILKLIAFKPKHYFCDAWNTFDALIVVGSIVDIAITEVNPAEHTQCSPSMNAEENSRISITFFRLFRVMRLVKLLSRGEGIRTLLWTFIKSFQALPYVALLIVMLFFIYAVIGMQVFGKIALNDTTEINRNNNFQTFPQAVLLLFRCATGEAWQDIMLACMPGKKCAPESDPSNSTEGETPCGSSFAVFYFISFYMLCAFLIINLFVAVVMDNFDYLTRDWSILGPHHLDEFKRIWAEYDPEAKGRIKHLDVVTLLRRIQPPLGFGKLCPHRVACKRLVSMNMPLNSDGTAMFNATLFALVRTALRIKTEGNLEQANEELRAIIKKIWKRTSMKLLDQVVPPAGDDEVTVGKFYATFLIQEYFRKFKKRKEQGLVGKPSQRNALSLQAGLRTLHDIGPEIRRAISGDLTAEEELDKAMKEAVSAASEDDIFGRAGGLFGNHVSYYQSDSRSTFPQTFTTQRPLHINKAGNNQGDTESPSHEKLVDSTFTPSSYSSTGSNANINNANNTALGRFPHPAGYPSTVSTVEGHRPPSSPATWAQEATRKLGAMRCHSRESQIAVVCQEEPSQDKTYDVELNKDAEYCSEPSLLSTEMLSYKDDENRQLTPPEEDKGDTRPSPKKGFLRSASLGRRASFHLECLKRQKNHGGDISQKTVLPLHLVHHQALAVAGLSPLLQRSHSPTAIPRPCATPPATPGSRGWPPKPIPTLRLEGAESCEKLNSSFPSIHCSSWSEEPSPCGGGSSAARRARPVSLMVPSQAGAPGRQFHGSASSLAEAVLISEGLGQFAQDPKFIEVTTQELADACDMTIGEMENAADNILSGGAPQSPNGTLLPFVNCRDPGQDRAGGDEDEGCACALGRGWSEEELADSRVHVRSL

CCOC(=O)C1=C(C)NC(C)=C(C(=O)OCC)C1c1ccc(-c2cc(=O)cc(C)o2)cc1
IC50: 2.14 µM
IC30: 7.2 ×10⁻⁷ M

CCOC(=O)C1=C(C)NC(C)=C(C(=O)OCC)C1c1cc(=O)cc(-c2ccccc2)o1
IC50: 3.24 µM
IC30: 1.01 ×10⁻⁶ M

CCOC(=O)C1=C(C)NC(C)=C(C(=O)OCC)C1c1cc(=O)cc(C)o1
IC50: 35.9 µM
IC30: 1.45 ×10⁻⁶ M

CCOC(=O)C1=C(C)NC(C)=C(C(=O)OC)C1c1ccc(-c2cc(=O)cc(-c3ccccc3)o2)cc1 (stereo unspecified)
IC50: 94.4 µM
IC30: 4.62 ×10⁻⁶ M

CCOC(=O)C1=C(C)NC(C)=C(C(=O)OC)C1c1ccc(-c2cc(=O)cc(C)o2)cc1 (stereo unspecified)
IC50: 86.1 µM
IC30: 4.62 ×10⁻⁶ M

CCOC(=O)C1=C(C)NC(C)=C(C(=O)OC)C1c1cc(=O)cc(-c2ccccc2)o1 (stereo unspecified)
IC50: 2.03 µM
IC30: 7.18 ×10⁻⁷ M

CCOC(=O)C1=C(C)NC(C)=C(C(=O)OC)C1c1cc(=O)cc(C)o1 (stereo unspecified)
IC50: 1.63 µM
IC30: 5.38 ×10⁻⁷ M

COC(=O)C1=C(C)NC(C)=C(C(=O)OC)C1c1ccc(-c2cc(=O)cc(-c3ccccc3)o2)cc1
IC50: 4.71 µM
IC30: 1.26 ×10⁻⁶ M

CCOC(=O)C1=C(C)NC(C)=C(C(=O)OCC)C1c1ccc(-c2cc(=O)cc(-c3ccccc3)o2)cc1
IC50: 12.2 µM
IC30: 6.12 ×10⁻⁶ M

COC(=O)C1=C(C)NC(C)=C(C(=O)OC)C1c1ccc(-c2cc(=O)cc(C)o2)cc1
IC50: 17.8 µM
IC30: 3.67 ×10⁻⁶ M

COC(=O)C1=C(C)NC(C)=C(C(=O)OC)C1c1ccccc1[N+](=O)[O-] [NIFEDIPINE]
IC30: 1.6 ×10⁻⁸ M
